Assay results from the supplement of paper PMC4862054.

Tested on: MDA-MB-453
Assay: normalised viability (% of control), CellTiter-Blue; higher = more viable cells (about 100 = DMSO control)
Details: 300 nM; incubation time: 72 h
Procedure: (§1)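 DSRT, CellTiter-Blue viability, 72 h incubation. Signal is normalised to DMSO and benzethonium chloride controls. Value is the normalised response at dose 8.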

For Cn1c(=O)n(-c2ccc(C(C)(C)C#N)cc2)c2c3cc(-c4cnc5ccccc5c4)ccc3ncc21 [NVP-BEZ235], the normalised viability was 12.6%.

Same assay, conditions: 3000 nM; incubation time: 72 h

Compared with O=C(O)CCCc1ccc(N(CCCl)CCCl)cc1 [Chlorambucil], CN(C)C[C@@H]1CCn2cc(c3ccccc32)C2=C(C(=O)NC2=O)c2cn(c3ccccc23)CCO1 [Ruboxistaurin] is lower in normalised viability: 108% for the first, 74.2% for the second.

With Cn1cncc1[C@@](N)(c1ccc(Cl)cc1)c1ccc2c(c1)c(-c1cccc(Cl)c1)cc(=O)n2C [Tipifarnib] the normalised viability was 50.1%.

Tested on: CAL-51
Assay: as above
Details: 300 nM; incubation time: 72 h
Procedure: as §1

Cn1c(=O)n(-c2ccc(C(C)(C)C#N)cc2)c2c3cc(-c4cnc5ccccc5c4)ccc3ncc21 [NVP-BEZ235] showed a normalised viability of 12.4%.

Same assay, conditions: 3000 nM; incubation time: 72 h

First: O=C(O)CCCc1ccc(N(CCCl)CCCl)cc1 [Chlorambucil]
Second: CN(C)C[C@@H]1CCn2cc(c3ccccc32)C2=C(C(=O)NC2=O)c2cn(c3ccccc23)CCO1 [Ruboxistaurin]
The normalised viability of the first is higher: 115% for the first, 70.4% for the second.

With Cn1cncc1[C@@](N)(c1ccc(Cl)cc1)c1ccc2c(c1)c(-c1cccc(Cl)c1)cc(=O)n2C [Tipifarnib] the normalised viability was 63.4%.

Tested on: DU-4475
Assay: as above
Details: 300 nM; incubation time: 72 h
Procedure: as §1

Work on Cn1c(=O)n(-c2ccc(C(C)(C)C#N)cc2)c2c3cc(-c4cnc5ccccc5c4)ccc3ncc21 [NVP-BEZ235] yielded a normalised viability of 15.8%.

Same assay, conditions: 3000 nM; incubation time: 72 h

First: O=C(O)CCCc1ccc(N(CCCl)CCCl)cc1 [Chlorambucil]
Second: CN(C)C[C@@H]1CCn2cc(c3ccccc32)C2=C(C(=O)NC2=O)c2cn(c3ccccc23)CCO1 [Ruboxistaurin]
The normalised viability of the first is higher: 125% for the first, 61.1% for the second.

In the case of Cn1cncc1[C@@](N)(c1ccc(Cl)cc1)c1ccc2c(c1)c(-c1cccc(Cl)c1)cc(=O)n2C [Tipifarnib], the normalised viability is reported as 42%.

Tested on: CAL-148
Assay: as above
Details: 300 nM; incubation time: 72 h
Procedure: as §1

Cn1c(=O)n(-c2ccc(C(C)(C)C#N)cc2)c2c3cc(-c4cnc5ccccc5c4)ccc3ncc21 [NVP-BEZ235] was tested, and the normalised viability was 10.7%.

Same assay, conditions: 3000 nM; incubation time: 72 h

First: O=C(O)CCCc1ccc(N(CCCl)CCCl)cc1 [Chlorambucil]
Second: CN(C)C[C@@H]1CCn2cc(c3ccccc32)C2=C(C(=O)NC2=O)c2cn(c3ccccc23)CCO1 [Ruboxistaurin]
The normalised viability of the first is higher: 96.7% for the first, 79.4% for the second.

In the case of Cn1cncc1[C@@](N)(c1ccc(Cl)cc1)c1ccc2c(c1)c(-c1cccc(Cl)c1)cc(=O)n2C [Tipifarnib], the normalised viability is reported as 42.6%.

Tested on: CAL-85-1
Assay: as above
Details: 300 nM; incubation time: 72 h
Procedure: as §1

Cn1c(=O)n(-c2ccc(C(C)(C)C#N)cc2)c2c3cc(-c4cnc5ccccc5c4)ccc3ncc21 [NVP-BEZ235] gave a normalised viability of 29.5%.

Same assay, conditions: 3000 nM; incubation time: 72 h

First: O=C(O)CCCc1ccc(N(CCCl)CCCl)cc1 [Chlorambucil]
Second: CN(C)C[C@@H]1CCn2cc(c3ccccc32)C2=C(C(=O)NC2=O)c2cn(c3ccccc23)CCO1 [Ruboxistaurin]
The normalised viability of the first is lower: 97.7% for the first, 106% for the second.

Compound Cn1cncc1[C@@](N)(c1ccc(Cl)cc1)c1ccc2c(c1)c(-c1cccc(Cl)c1)cc(=O)n2C [Tipifarnib] has a normalised viability of 65.2%.

Tested on: HDQ-P1
Assay: as above
Details: 300 nM; incubation time: 72 h
Procedure: as §1

Work on Cn1c(=O)n(-c2ccc(C(C)(C)C#N)cc2)c2c3cc(-c4cnc5ccccc5c4)ccc3ncc21 [NVP-BEZ235] yielded a normalised viability of 26.5%.

Same assay, conditions: 3000 nM; incubation time: 72 h

Going from O=C(O)CCCc1ccc(N(CCCl)CCCl)cc1 [Chlorambucil] to CN(C)C[C@@H]1CCn2cc(c3ccccc32)C2=C(C(=O)NC2=O)c2cn(c3ccccc23)CCO1 [Ruboxistaurin], the normalised viability falls from 107% to 74.2%.

Cn1cncc1[C@@](N)(c1ccc(Cl)cc1)c1ccc2c(c1)c(-c1cccc(Cl)c1)cc(=O)n2C [Tipifarnib] gave a normalised viability of 66.8%.

Tested on: MDA-MB-453
Assay: drug sensitivity score (DSS), CellTiter-Blue viability (DSS (AUC-based score)); higher = stronger viability inhibition; extreme values may be limits of the assay
Details: incubation time: 72 h
Procedure: (§2)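 DSRT with the CellTiter-Blue (resazurin reduction) viability readout, fluorescence 560/590 nm, 72 h incubation. Plates were normalised to DMSO and benzethonium chloride controls. DSS is computed from the area under the fitted dose-response curve (5 or 9 concentrations).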

Compared with O=C(O)CCCc1ccc(N(CCCl)CCCl)cc1 [Chlorambucil], CN(C)C[C@@H]1CCn2cc(c3ccccc32)C2=C(C(=O)NC2=O)c2cn(c3ccccc23)CCO1 [Ruboxistaurin] is higher in drug sensitivity score: 0 for the first, 4.14 for the second.

Compared with Cn1c(=O)n(-c2ccc(C(C)(C)C#N)cc2)c2c3cc(-c4cnc5ccccc5c4)ccc3ncc21 [NVP-BEZ235], Cn1cncc1[C@@](N)(c1ccc(Cl)cc1)c1ccc2c(c1)c(-c1cccc(Cl)c1)cc(=O)n2C [Tipifarnib] is lower in drug sensitivity score: 21.6 for the first, 10.5 for the second.

Tested on: Hs578T
Assay: as above
Details: incubation time: 72 h
Procedure: as §2

Going from O=C(O)CCCc1ccc(N(CCCl)CCCl)cc1 [Chlorambucil] to CN(C)C[C@@H]1CCn2cc(c3ccccc32)C2=C(C(=O)NC2=O)c2cn(c3ccccc23)CCO1 [Ruboxistaurin], the drug sensitivity score rises from 0 to 1.19.

Compared with Cn1c(=O)n(-c2ccc(C(C)(C)C#N)cc2)c2c3cc(-c4cnc5ccccc5c4)ccc3ncc21 [NVP-BEZ235], Cn1cncc1[C@@](N)(c1ccc(Cl)cc1)c1ccc2c(c1)c(-c1cccc(Cl)c1)cc(=O)n2C [Tipifarnib] is lower in drug sensitivity score: 18.4 for the first, 5.75 for the second.

Tested on: HCC1599
Assay: as above
Details: incubation time: 72 h
Procedure: as §2

Compared with O=C(O)CCCc1ccc(N(CCCl)CCCl)cc1 [Chlorambucil], CN(C)C[C@@H]1CCn2cc(c3ccccc32)C2=C(C(=O)NC2=O)c2cn(c3ccccc23)CCO1 [Ruboxistaurin] is higher in drug sensitivity score: 0 for the first, 3.54 for the second.

Going from Cn1c(=O)n(-c2ccc(C(C)(C)C#N)cc2)c2c3cc(-c4cnc5ccccc5c4)ccc3ncc21 [NVP-BEZ235] to Cn1cncc1[C@@](N)(c1ccc(Cl)cc1)c1ccc2c(c1)c(-c1cccc(Cl)c1)cc(=O)n2C [Tipifarnib], the drug sensitivity score rises from 8.13 to 9.57.

Tested on: BT-474
Assay: as above
Details: incubation time: 72 h
Procedure: as §2

First: O=C(O)CCCc1ccc(N(CCCl)CCCl)cc1 [Chlorambucil]
Second: CN(C)C[C@@H]1CCn2cc(c3ccccc32)C2=C(C(=O)NC2=O)c2cn(c3ccccc23)CCO1 [Ruboxistaurin]
The drug sensitivity score of the first is lower: 0 for the first, 6.23 for the second.

Going from Cn1c(=O)n(-c2ccc(C(C)(C)C#N)cc2)c2c3cc(-c4cnc5ccccc5c4)ccc3ncc21 [NVP-BEZ235] to Cn1cncc1[C@@](N)(c1ccc(Cl)cc1)c1ccc2c(c1)c(-c1cccc(Cl)c1)cc(=O)n2C [Tipifarnib], the drug sensitivity score falls from 12 to 5.35.

Tested on: CAL-51
Assay: as above
Details: incubation time: 72 h
Procedure: as §2

First: O=C(O)CCCc1ccc(N(CCCl)CCCl)cc1 [Chlorambucil]
Second: CN(C)C[C@@H]1CCn2cc(c3ccccc32)C2=C(C(=O)NC2=O)c2cn(c3ccccc23)CCO1 [Ruboxistaurin]
The drug sensitivity score of the first is lower: 0 for the first, 4.59 for the second.

Going from Cn1c(=O)n(-c2ccc(C(C)(C)C#N)cc2)c2c3cc(-c4cnc5ccccc5c4)ccc3ncc21 [NVP-BEZ235] to Cn1cncc1[C@@](N)(c1ccc(Cl)cc1)c1ccc2c(c1)c(-c1cccc(Cl)c1)cc(=O)n2C [Tipifarnib], the drug sensitivity score falls from 20.7 to 9.74.

Tested on: HCC1143
Assay: as above
Details: incubation time: 72 h
Procedure: as §2

O=C(O)CCCc1ccc(N(CCCl)CCCl)cc1 [Chlorambucil] and CN(C)C[C@@H]1CCn2cc(c3ccccc32)C2=C(C(=O)NC2=O)c2cn(c3ccccc23)CCO1 [Ruboxistaurin] are the same in drug sensitivity score: 0 for the first, 0 for the second.

First: Cn1c(=O)n(-c2ccc(C(C)(C)C#N)cc2)c2c3cc(-c4cnc5ccccc5c4)ccc3ncc21 [NVP-BEZ235]
Second: Cn1cncc1[C@@](N)(c1ccc(Cl)cc1)c1ccc2c(c1)c(-c1cccc(Cl)c1)cc(=O)n2C [Tipifarnib]
The drug sensitivity score of the first is higher: 15.4 for the first, 14.7 for the second.

Tested on: SK-BR-3
Assay: as above
Details: incubation time: 72 h
Procedure: as §2

Compared with O=C(O)CCCc1ccc(N(CCCl)CCCl)cc1 [Chlorambucil], CN(C)C[C@@H]1CCn2cc(c3ccccc32)C2=C(C(=O)NC2=O)c2cn(c3ccccc23)CCO1 [Ruboxistaurin] is higher in drug sensitivity score: 0 for the first, 6.94 for the second.

First: Cn1c(=O)n(-c2ccc(C(C)(C)C#N)cc2)c2c3cc(-c4cnc5ccccc5c4)ccc3ncc21 [NVP-BEZ235]
Second: Cn1cncc1[C@@](N)(c1ccc(Cl)cc1)c1ccc2c(c1)c(-c1cccc(Cl)c1)cc(=O)n2C [Tipifarnib]
The drug sensitivity score of the first is higher: 15.9 for the first, 12.6 for the second.
